Common to all, as to type: cell-based
The target of assay [1] is T1, human TLR7 (Homo sapiens, UniProt Q9NYK1).
T1 construct: host or cells: HEK-Blue cells
T1 sequence (Q9NYK1 27-1049): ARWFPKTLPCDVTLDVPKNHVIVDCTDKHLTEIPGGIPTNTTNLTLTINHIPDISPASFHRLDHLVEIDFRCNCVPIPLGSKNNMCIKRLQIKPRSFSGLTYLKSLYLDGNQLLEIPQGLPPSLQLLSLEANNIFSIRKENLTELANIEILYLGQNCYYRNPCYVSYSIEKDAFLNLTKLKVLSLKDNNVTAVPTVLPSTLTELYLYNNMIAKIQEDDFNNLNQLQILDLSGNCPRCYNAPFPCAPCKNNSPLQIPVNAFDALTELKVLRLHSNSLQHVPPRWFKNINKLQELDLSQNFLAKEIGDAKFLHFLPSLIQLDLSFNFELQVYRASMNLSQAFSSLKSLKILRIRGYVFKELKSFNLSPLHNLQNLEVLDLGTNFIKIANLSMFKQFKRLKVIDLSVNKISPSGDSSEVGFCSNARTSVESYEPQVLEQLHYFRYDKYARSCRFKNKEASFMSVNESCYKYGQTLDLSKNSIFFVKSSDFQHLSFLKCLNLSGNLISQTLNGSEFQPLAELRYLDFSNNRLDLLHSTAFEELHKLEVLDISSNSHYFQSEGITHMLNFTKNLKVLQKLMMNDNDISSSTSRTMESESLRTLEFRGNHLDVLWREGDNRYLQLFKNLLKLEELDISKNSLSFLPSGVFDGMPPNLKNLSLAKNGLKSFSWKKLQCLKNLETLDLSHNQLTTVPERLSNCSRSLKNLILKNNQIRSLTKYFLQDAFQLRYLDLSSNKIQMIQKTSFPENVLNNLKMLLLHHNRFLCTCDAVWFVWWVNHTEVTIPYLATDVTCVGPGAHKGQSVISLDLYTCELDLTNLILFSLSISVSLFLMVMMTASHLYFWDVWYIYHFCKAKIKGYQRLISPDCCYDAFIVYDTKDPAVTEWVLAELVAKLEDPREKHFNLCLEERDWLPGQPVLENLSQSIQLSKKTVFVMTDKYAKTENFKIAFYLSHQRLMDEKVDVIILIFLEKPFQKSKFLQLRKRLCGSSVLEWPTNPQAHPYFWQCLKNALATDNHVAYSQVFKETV
Description: TLR7 inhibition reporter assay (HEK-Blue cells, SEAP reporter, gardiquimod stimulation). To be noted: HEK-Blue cells overexpressing human TLR7, SEAP reporter, gardiquimod 7.5 μM. In a few lines:
(§1)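 HEK-Blue cells overexpressing human TLR7, TLR8 or TLR9, with an NF-κB/AP-1-driven SEAP reporter, pre-treated 30 min at room temperature with compound (0.05 nM-50 μM final). Stimulated with 7.5 μM gardiquimod (TLR7), 15.9 μM R848 (TLR8) or 5 nM ODN2006 (TLR9), then 22 h at 37° C. SEAP read with HEK-Blue Detection; % inhibition set against agonist+DMSO and known-inhibitor wells.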

Assay [2] has as its target T2, human TLR8 (Homo sapiens, UniProt Q9NR97).
T2 construct: host or cells: HEK-Blue cells
T2 sequence (Q9NR97 27-1041): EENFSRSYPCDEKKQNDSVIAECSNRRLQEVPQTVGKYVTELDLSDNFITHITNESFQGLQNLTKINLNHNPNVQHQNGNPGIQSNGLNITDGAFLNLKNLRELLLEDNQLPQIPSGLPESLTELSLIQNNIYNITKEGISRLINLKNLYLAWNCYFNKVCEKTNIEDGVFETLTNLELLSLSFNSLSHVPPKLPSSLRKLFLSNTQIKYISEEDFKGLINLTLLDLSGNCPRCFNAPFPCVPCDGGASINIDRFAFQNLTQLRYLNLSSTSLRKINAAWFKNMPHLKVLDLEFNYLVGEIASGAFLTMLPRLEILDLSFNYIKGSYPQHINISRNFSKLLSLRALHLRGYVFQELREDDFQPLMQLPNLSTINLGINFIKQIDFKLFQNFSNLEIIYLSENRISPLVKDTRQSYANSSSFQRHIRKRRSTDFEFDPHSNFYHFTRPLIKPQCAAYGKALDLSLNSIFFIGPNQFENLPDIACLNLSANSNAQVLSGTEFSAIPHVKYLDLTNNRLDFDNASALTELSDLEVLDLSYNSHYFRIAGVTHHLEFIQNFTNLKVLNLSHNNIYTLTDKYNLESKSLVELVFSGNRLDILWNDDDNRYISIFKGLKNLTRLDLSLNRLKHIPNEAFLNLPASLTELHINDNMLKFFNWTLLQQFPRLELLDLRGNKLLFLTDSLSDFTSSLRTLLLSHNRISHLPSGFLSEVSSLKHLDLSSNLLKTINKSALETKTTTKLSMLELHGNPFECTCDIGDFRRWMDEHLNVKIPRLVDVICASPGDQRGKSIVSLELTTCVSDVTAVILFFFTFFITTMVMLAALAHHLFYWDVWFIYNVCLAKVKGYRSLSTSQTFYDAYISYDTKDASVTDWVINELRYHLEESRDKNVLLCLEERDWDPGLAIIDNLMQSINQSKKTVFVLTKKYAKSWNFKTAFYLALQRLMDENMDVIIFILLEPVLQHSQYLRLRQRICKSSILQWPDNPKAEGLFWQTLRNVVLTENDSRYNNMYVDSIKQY
Description: TLR8 inhibition reporter assay (HEK-Blue cells, SEAP reporter, R848 stimulation). To be noted: HEK-Blue cells overexpressing human TLR8, SEAP reporter, R848 15.9 μM. The essentials:
as §1

Assay [3] addresses T3, human TLR9 (Homo sapiens, UniProt Q9NR96).
T3 construct: host or cells: HEK-Blue cells
T3 sequence (Q9NR96 26-1032): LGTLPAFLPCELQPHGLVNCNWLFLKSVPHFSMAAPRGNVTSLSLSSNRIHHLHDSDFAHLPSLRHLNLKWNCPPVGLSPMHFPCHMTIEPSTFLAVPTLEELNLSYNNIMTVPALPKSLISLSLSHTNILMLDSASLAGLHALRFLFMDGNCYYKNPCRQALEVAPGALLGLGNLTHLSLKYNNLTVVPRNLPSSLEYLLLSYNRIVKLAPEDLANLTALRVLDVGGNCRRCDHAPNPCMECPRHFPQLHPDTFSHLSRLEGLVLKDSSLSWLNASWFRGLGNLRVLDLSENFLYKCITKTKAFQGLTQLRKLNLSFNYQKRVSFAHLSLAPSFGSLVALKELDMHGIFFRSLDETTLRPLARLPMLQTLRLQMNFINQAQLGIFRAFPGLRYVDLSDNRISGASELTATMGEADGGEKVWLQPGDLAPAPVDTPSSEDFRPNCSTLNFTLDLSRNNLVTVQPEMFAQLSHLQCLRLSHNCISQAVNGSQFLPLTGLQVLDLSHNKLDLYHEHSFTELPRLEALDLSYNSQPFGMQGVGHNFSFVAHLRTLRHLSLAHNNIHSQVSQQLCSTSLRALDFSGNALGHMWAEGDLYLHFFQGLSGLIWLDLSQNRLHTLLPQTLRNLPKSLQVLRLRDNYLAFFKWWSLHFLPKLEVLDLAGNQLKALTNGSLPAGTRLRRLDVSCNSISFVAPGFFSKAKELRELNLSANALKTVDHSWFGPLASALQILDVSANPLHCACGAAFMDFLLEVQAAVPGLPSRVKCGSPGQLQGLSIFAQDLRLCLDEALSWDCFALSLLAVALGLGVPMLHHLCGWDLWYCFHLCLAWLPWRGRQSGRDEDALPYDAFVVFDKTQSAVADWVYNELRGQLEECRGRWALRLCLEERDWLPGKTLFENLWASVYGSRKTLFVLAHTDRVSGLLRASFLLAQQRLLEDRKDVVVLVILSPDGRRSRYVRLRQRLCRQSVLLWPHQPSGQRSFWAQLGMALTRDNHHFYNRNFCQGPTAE
Description: TLR9 inhibition reporter assay (HEK-Blue cells, SEAP reporter, ODN2006 stimulation). To be noted: HEK-Blue cells overexpressing human TLR9, SEAP reporter, ODN2006 5 nM. The essentials:
as §1

From US20230117470A1, “SUBSTITUTED PYRAZOLE COMPOUNDS AS TOLL RECEPTOR INHIBITORS” (BRISTOL-MYERS SQUIBB COMPANY, priority 2019, published 2023) come the findings set out here.

A value given as a limit tells only on which side of the number the result lay.

For `COc1cc(-c2[nH]nc(-c3cnc(C4CCN(C(=O)CN(C)C)CC4)cn3)c2C(C)C)cn2ncnc12` [Example 403], the IC50 in assay [1] was 26.9 nM; in assay [2], 156 nM; in assay [3], above 50000 nM.
On the same counts, the results for `COc1cc(-c2[nH]nc(-c3nc4c(s3)CNCC4)c2C(C)C)cn2ncnc12` [Example 220] are 1.4 nM, 4.38 nM and above 50000 nM.
As to `CCN1CCc2nc(-c3n[nH]c(-c4cc(OC)c5ncnn5c4)c3C(C)C)sc2C1` [Example 261], the figures for the IC50 in assay [1], in assay [2] and in assay [3] were 8.43 nM, 2.26 nM and 17100 nM, respectively.
`Cc1cc(-c2[nH]nc(C(=O)NC3CN(C)C3)c2C(C)C)cn2ncnc12` [Example 156]: the IC50 in assay [1] was found to be 1.72 nM; in assay [2], 0.09 nM; in assay [3], 10900 nM.
On to `COc1cc(-c2[nH]nc(-c3ccc(C4CN(C5CCOCC5)C4)cc3)c2C(C)C)cn2ncnc12` [Example 333], for which the IC50 in assay [1] came out at 34.9 nM; in assay [2], 2.19 nM; in assay [3] it was 37400 nM.
In the case of `COc1cc(-c2[nH]nc(-c3ccc(C4CCN(CC5(C)COC5)CC4)cc3)c2C(C)C)cn2ncnc12` [Example 312], the IC50 was 5.42 nM in assay [1], 17.8 nM in assay [2] and above 50000 nM in assay [3].
`COCCN(C)C1CCC(NC(=O)c2n[nH]c(-c3cc(C)c4ncnn4c3)c2C(C)C)CC1` (stereo not drawn) [Example 128]: the IC50 in assay [1] was found to be 1.21 nM; in assay [2] it was 8.29 nM; in assay [3] it was 13400 nM.
On the same counts, the results for `COc1cc(-c2[nH]nc(-c3ccc(C4CCN(C(=O)CN(C)C)CC4)cn3)c2C(C)C)cn2ncnc12` [Example 402, 2-(dimethylamino)-1-(4-(6-(4-isopropyl-5-(8-methoxy-[1,2,4]triazolo[1,5-a]pyridin-6-yl)-1H-pyrazol-3-yl)pyridin-3-yl)piperidin-1-yl)ethan-1-one] are 35.1 nM, 297 nM and above 50000 nM.
On the same counts, the results for `Cc1cc(-c2[nH]nc(C(=O)NC3CCC(NC4(C)COC4)CC3)c2C(C)C)cn2ncnc12` (stereo not drawn) [Example 123] are 5.09 nM, 16.8 nM and 6290 nM.
As for `Cc1cc(-c2[nH]nc(-c3ccc4c(c3)CCN(C)C4)c2C(C)C)cn2ncnc12` [Example 235, 6-(4-isopropyl-5-(8-methyl-[1,2,4]triazolo[1,5-a]pyridin-6-yl)-1H-pyrazol-3-yl)-2-methyl-1,2,3,4-tetrahydroisoquinoline], the IC50 in assay [1] turned out to be 1.05 nM; in assay [2] it was 1.01 nM; in assay [3], 16600 nM.
Regarding `Cc1cc(-c2[nH]nc(-c3nc4c(s3)CN(C(C)C)CC4)c2C(C)C)cn2ncnc12` [Example 252], the results for the half-maximal inhibitory concentration (IC50) in assay [1], in assay [2] and in assay [3] were 67.9 nM, 35.8 nM and above 50000 nM, respectively.
Take `Cc1cc(-c2[nH]nc(C(=O)N[C@H]3CC[C@H](N(CC4CC4)CC4CC4)CC3)c2C(C)C)cn2ncnc12` [Example 103]: the IC50 in assay [1] came out at 48 nM; in assay [2] it was 3.46 nM; in assay [3], 3600 nM.
On to `Cc1cc(-c2[nH]nc(C(=O)N3CCOCC3)c2C(C)C)cn2ncnc12` [Example 30], for which the IC50 in assay [1] came out at 4.37 nM; in assay [2], 2.07 nM; in assay [3], 14800 nM.
On the same counts, the results for `CCC(CC)CN1CCC(NC(=O)c2n[nH]c(-c3cc(C)c4ncnn4c3)c2C(C)C)CC1` [Example 79] are 2.29 nM, 9.23 nM and 4120 nM.
On the same counts, the results for `COc1cc(-c2[nH]nc(-c3ccc(C4CN(C)C4)cc3)c2C(C)C)cn2ncnc12` [Example 328] are 12.9 nM, 12.8 nM and 18800 nM.
The matching figures for `Cc1cc(-c2[nH]nc(-c3ccncc3)c2C(C)C)cn2ncnc12` [Example 223]: 8.65 nM, 10.3 nM and 14300 nM.
On to `Cc1cc(-c2[nH]nc(C(=O)NC3CCN(C(C)CS(C)(=O)=O)CC3)c2C(C)C)cn2ncnc12` (stereo not drawn) [Example 174, 4-isopropyl-5-(8-methyl-[1,2,4]triazolo[1,5-a]pyridin-6-yl)-N-(1-(1-(methylsulfonyl)propan-2-yl)piperidin-4-yl)-1H-pyrazole-3-carboxamide], for which the IC50 in assay [1] was 1.84 nM; in assay [2], 3.13 nM; in assay [3], 16000 nM.
With `Cc1cc(-c2[nH]nc(C3CCC(N(C)C(=O)CN(C)C)CC3)c2C(C)C)cn2ncnc12` (stereo not drawn) [Example 296, 2-(dimethylamino)-N-(4-(4-isopropyl-5-(8-methyl-[1,2,4]triazolo[1,5-a]pyridin-6-yl)-1H-pyrazol-3-yl)cyclohexyl)-N-methylacetamide], the IC50 was found to be 3.45 nM in assay [1], 0.73 nM in assay [2] and 33800 nM in assay [3].
As to `Cc1cc(-c2[nH]nc(C(=O)NCC3CCNCC3)c2C(C)C)cn2ncnc12` [Example 45], the figures for the IC50 in assay [1], in assay [2] and in assay [3] were 1.84 nM, 19.5 nM and 45400 nM, respectively.
